In PubChem BioAssay (NCI):
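Test compounds were applied to cells in 96-well plates for 48 hours at 5 doses. Abbreviation: GI50, concentration required for 50% inhibition of growth. TGI is the concentration that stops growth completely.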

Key:
Test in all cases: growth of human tumour cells (NCI), 48 h
CAKI-1 renal = system: CAKI-1 renal
UACC-257 melanoma = system: UACC-257 melanoma
SNB-75 CNS = system: SNB-75 CNS
PC-3 prostate = system: PC-3 prostate
A549 NSCLC = system: A549 NSCLC
T-47D breast = system: T-47D breast
HOP-62 NSCLC = system: HOP-62 NSCLC
NCI/ADR-RES ovarian = system: NCI/ADR-RES ovarian
HCC-2998 colon = system: HCC-2998 colon
LOX IMVI melanoma = system: LOX IMVI melanoma

Row | SMILES | GI50 (CAKI-1 renal) [µM] | TGI (CAKI-1 renal) [µM] | GI50 (UACC-257 melanoma) [µM] | TGI (UACC-257 melanoma) [µM] | GI50 (SNB-75 CNS) [µM] | TGI (SNB-75 CNS) [µM] | GI50 (PC-3 prostate) [µM] | TGI (PC-3 prostate) [µM] | GI50 (A549 NSCLC) [µM] | TGI (A549 NSCLC) [µM] | GI50 (T-47D breast) [µM] | TGI (T-47D breast) [µM] | GI50 (HOP-62 NSCLC) [µM] | TGI (HOP-62 NSCLC) [µM] | GI50 (NCI/ADR-RES ovarian) [µM] | TGI (NCI/ADR-RES ovarian) [µM] | GI50 (HCC-2998 colon) [µM] | TGI (HCC-2998 colon) [µM] | TGI (LOX IMVI melanoma) [µM] | GI50 (LOX IMVI melanoma) [µM]
1 | COc1cccc(/C=C/C(=O)c2ccc(SC)cc2)c1OC | 18.4 | 35.9 | 15.7 | 29.3 | 14.6 | 30.7 | 17 | 43.8 | 12.1 | 25.5 | 11.6 | 35.2 | 19.3 | 34.2 | 16.2 | 38.5 | 16.8 | 30.4 |  | 
2 | O=C(/C=C\c1cccc2ccccc12)c1ccc(F)cc1 |  | 35.3 |  | 34.7 |  | 75.3 |  |  |  | 81.2 |  |  |  | > 100 |  |  |  | 35.8 |  | 
3 | CCCCCOCC(O)CO (centres undefined) |  | > 100 |  | > 100 |  |  |  |  |  | > 100 |  |  |  | > 100 |  |  |  |  | > 100 | 
4 | Cc1ccc(-c2nc3ccccc3c(=O)n2NCC2(O)OCC(O)C(O)C2O)cc1 (centres undefined) |  | > 100 |  | > 100 |  | > 100 |  |  |  | > 100 |  |  |  |  |  |  |  |  | > 100 | 
5 | Cc1cccc(-n2c(N)c(-c3nc4ccccc4[nH]3)sc2=S)c1 |  | 90.5 |  | 67.1 |  | > 100 |  |  |  | 71.9 |  |  |  | 78.9 |  |  |  |  | 58 | 
6 | COc1cc(Oc2c(C)c(Cl)c(OC)c(Cl)c2OC)c2c(c1Cl)COC2=O |  | > 100 |  | > 100 |  | > 100 |  |  |  | > 100 |  | > 100 |  |  |  | > 100 |  | > 100 | > 100 | 
7 | COc1ccc(/C=C2\CN(C(=O)C(Cl)Cl)C/C(=C\c3ccc(OC)cc3)C2=O)cc1 |  |  |  |  |  |  |  |  | 2.57 | > 100 |  |  |  |  | 2 | 15.1 | 1.02 | 2.2 | 0.766 | 0.251
8 | CN1CN(C2OC(CO)C(O)C2O)c2nc(N)[nH]c(=O)c21 (centres undefined) |  | > 100 |  | > 100 |  | > 100 |  |  |  | > 100 |  |  |  | > 100 |  |  |  | > 100 |  | 
9 | O=C1C(=C(C(F)(F)Cl)C(F)(F)Cl)C2CCC1C2 (centres undefined) |  |  |  | 4.2 |  | > 10 |  | 5.48 |  | > 10 |  | 4.58 |  | > 10 |  | 5.18 |  | > 10 | 2.89 | 
10 | CCC(=O)N1C(=O)OCC1C(C)C (centres undefined) |  | > 100 |  | > 100 |  | > 100 |  |  |  | > 100 |  |  |  | > 100 |  |  |  | > 100 | > 100 | 
11 | O=C/C1=C/C2=Cc3ccccc3C=C(/C=C(/C=O)C1)C2 |  | > 100 |  | > 100 |  | 80 |  |  |  | > 100 |  |  |  | > 100 |  |  |  | > 100 | > 100 | 
12 | N#CC(C(=O)C(=O)Nc1ccccc1)c1ccccc1 (centres undefined) |  | > 100 |  | > 100 |  | > 100 |  |  |  | > 100 |  |  |  |  |  |  |  |  | > 100 | 
13 | CCC[CH2][Sn]([CH2]CCC)([O]c1cccc2cccnc12)[O]c1cccc2cccnc12 | 0.2 | 0.718 |  |  | 0.156 | 0.563 |  |  | 1.26 | 2.92 |  |  | 6.31 | 19.2 |  |  | 0.36 | 0.842 | 0.313 | 0.162
14 | CC(=O)Nc1cc2cc(N)ccc2oc1=O |  | > 100 |  | > 100 |  |  |  | > 100 |  | > 100 |  | > 100 |  | > 100 |  | > 100 |  | > 100 | > 100 | 
15 | COc1cc(OC)c(C(=O)c2cccs2)cc1N |  | > 100 |  | > 100 |  | > 100 |  |  |  | > 100 |  |  |  | > 100 |  |  |  | > 100 | > 100 | 
16 | CCCCN1CCCC[C@@H]1C(=O)N[C@H](C(=O)N(C)[C@H](C[C@@H](OC(C)=O)c1nc(C(=O)NC2CCC(C(=O)OC)CC2)cs1)C(C)C)C(C)C (some centres undefined) |  |  | 2.42 | > 25 |  |  | 1.41 | > 25 | 1.68 | > 25 | 1.62 | > 25 | 2.35 | > 25 | 3.53 | > 25 | 4.02 | > 25 | > 25 | 1.36
17 | C[C@]12CCC(=O)C(OC(=O)c3ccc([N+](=O)[O-])cc3)=C1CCC2=O |  | > 100 |  | > 100 |  | > 100 |  |  |  | > 100 |  |  |  | > 100 |  |  |  | > 100 | > 100 | 
18 | O=C1C(=O)N(c2ccc(Cl)cc2)C(=O)C(=O)C1c1nc2ccccc2o1 |  | > 100 |  | > 100 |  | > 100 |  |  |  | > 100 |  |  |  | > 100 |  |  |  | > 100 | > 100 | 
19 | N#Cc1ccc(Cc2ccccn2)cc1Cl |  | > 100 |  | > 100 |  |  |  |  |  | > 100 |  |  |  | > 100 |  |  |  |  | > 100 | 
20 | O=C(Nc1cccc2c1C(=O)c1c(NC(=O)c3ccccc3)ccc(Nc3cccc4c3C(=O)c3ccccc3C4=O)c1C2=O)c1ccccc1 |  | > 100 |  | > 100 |  | > 100 |  |  |  | > 100 |  |  |  | > 100 |  |  |  | > 100 |  | 
21 | COc1cc(/C=C(\NC(=O)c2ccccc2)c2nc3ccc4c(c3[nH]2)C(=O)c2ccccc2C4=O)cc(OC)c1OC |  | > 100 |  | > 100 |  | 75.3 |  |  |  | > 100 |  |  |  | > 100 |  |  |  | > 100 | > 100 | 
22 | O=S(=O)(CCN1CCOCC1)Nc1cc(-c2ccc3ncnc(Nc4ccc(F)c(Cl)c4)c3c2)cnc1Cl |  |  | 0.498 | 8.12 |  |  | 0.36 | 15.1 | 1.62 | 6.29 | 0.07 | 0.975 | 0.578 | 14.2 | 5.63 | > 100 | 1.05 | 7.73 | 3.15 | 0.414
23 | COC(OC)c1cc2c(cc1C=O)OCO2 |  | > 100 |  | > 100 |  | 54.7 |  |  |  | > 100 |  |  |  | > 100 |  |  |  | > 100 |  | 
24 | CN(C)CCN1C(=O)c2cccc3cc([N+](=O)[O-])cc(c23)C1=O |  | 1.76 |  | 2.13 |  | 1.05 |  | 3.49 |  | 0.397 |  | 29.6 |  | 0.779 |  |  |  | 3.56 | 0.806 | 
25 | COc1ccc(/C(=N\NC(=O)NN)C(c2ccc(OC)cc2)C2(O)C(=O)Nc3c(Cl)cc(Cl)cc32)cc1 (centres undefined) |  |  |  | > 100 |  | > 100 |  |  |  | > 100 |  |  |  | > 100 |  |  |  | > 100 | > 100 | 
26 | CO[C@@H]1C=C[C@@]23c4cc5c(cc4CN(C[C@@H]2O)[C@H]3C1)OCO5 |  | 49.1 |  | > 100 |  | 50.6 |  |  |  | > 100 |  |  |  |  |  |  |  | 56.6 | 80.9 | 
